Values joined by “and” are separate entries in the source; they are usually repeats but may differ in a detail not shown here. Equal entries are not always repeated.
Legend:
[1] = test system: L. plantarum strain PN0512; experiment: Growth yield (OD600) in isobutanol, stearic acid fed and unfed cultures; assay type: cell-based, Lactobacillus plantarum; settings: no fatty acid fed, 25 hours, 30° C.
Experimental: For growth yield experiments, 5 ml of medium with test fatty acids (10-500 mg per liter) and varying concentrations of isobutanol in 15 ml screw cap tubes was inoculated with 12.5 μl of the working stock giving an initial OD600 of 0.012. The caps were tightly sealed and incubated at 30° C. on a roller drum for 20 to 26 hours, at which time 1.0 ml was removed and OD600 was measured with a blank of medium amended with the fatty acid. All solvent concentrations are reported as % (w/v).
Growth of L. plantarum cultures in the media described in General Methods and containing varying concentrations of isobutanol was measured and compared with the cultures fed (supplemented with) stearic acid at a final concentration of 50 mg per liter of medium. Cultures were prepared as described in General Methods.

BP63 (ΔfabZ1) [2] = experiment: Shake flask growth rate of BP63 with isobutanol and oleic acid; assay type: cell-based, L. plantarum
Experimental: Four sets of conditions were prepared. For the first set, 20 mg/l oleic acid was added and isobutanol was added to 0, 1, 1.5, 2 and 2.5% final concentration. In the second set of flasks, 30 mg/L of oleic acid was added to the medium and the following final isobutanol concentrations were used: 0, 1, 1.5, 2, 2.5, and 3% w/v. The third and fourth set of the shake flask cultures were done at oleic acid concentrations of 50 and 55 mg/L. These flasks were placed in a shaking water bath at 30° C. at 80 RPM. Samples were taken at 2, 3, 4, and 5 hrs and the OD600 was measured.

BP63 (ΔfabZ1) [3] = experiment: Growth of BP63 in the presence of isobutanol and oleic acid; assay type: cell-based, L. plantarum; settings: for Growth (OD600) of BP63 (ΔfabZ1): 18 hours, 30° C.
Experimental: The purpose of these experiments was to see if the requirement for oleic acid changed in the presence of isobutanol. Semi-synthetic LAB medium, pH6, supplemented with 75 μg/mL uracil, 2.5 μg/mL hematin was used along with a series of varying concentrations of isobutanol and oleic acid. Oleic was added to the final concentrations of 0, 10, 20, 30, 40, and 50 mg/L. Isobutanol was added to the final concentrations of 0, 1.0, 1.5, 2.0, 2.5, and 3% (w/v). 2.5 mL of media was inoculated with […] of the BP63 working stock. The cultures were incubated at 30° C. without shaking for 18 hours. At 18 hours the OD600 was measured.

BP63 (ΔfabZ1) [4] = experiment: Growth yield (OD600) with oleic acid, fabZ1 deletion strain; assay type: cell-based, L. plantarum; settings: for OD600 BP63 (ΔfabZ1): 24 hours, 30° C.
Experimental: (§1) Strain BP63 (ΔfabZ1, described in Example 4) and the parental strain BP15 (fabZ1^+, described in Example 3) were grown in semi-synthetic LAB medium, pH6, with 75 μg/ml uracil and 2.5 μg/mL hematin in the presence and absence of an unsaturated fatty acid, oleic acid. Cultures were prepared as described in General Methods.

[5] = test system: BP63 (L. plantarum PN0512ΔpyrFΔfabZ1); experiment: Fatty acid supplements supporting growth of the fabZ1 mutant; assay type: cell-based; settings: fatty acid supplied at 80 mg/L; overnight incubation, OD600
Experimental: With 100 or 200 mg/liter of oleic acid the growth of BP63 was equivalent to that of the fabZ1^+ control strain, BP15. […] Thus, we conclude that fabZ1 in L. plantarum has the same function as FabN in E. faecalis (Wang, H. and Cronan, J. E. 2004. Functional replacement of the FabA and FabB proteins of Escherichia coli fatty acid synthesis by Enterococcus faecalis FabZ and FabF homologs. J. Biol. Chem. 279, 34489-95). To further test the range of fatty acid supplements that support growth of the fabZ1 mutant, several other fatty acids were supplied at 80 mg/L to the semi-synthetic LAB medium as described above. BP63 and the parental control BP15 were inoculated from the working stocks. After overnight incubation, the OD600 was measured. The growth of BP15 was not inhibited by any of the fatty acids tested. The Table 9 below summarizes the results for the fabZ1 mutant strain, BP63.

BP15 (fabZ1^+) = experiment: Growth yield (OD600) with oleic acid, parental strain; assay type: cell-based, L. plantarum; settings: 24 hours, 30° C.
Experimental: as §1

CC(C)CO [Isobutanol, isobutanol]
OD600 unfed control ([1]; 2.3 % w/v isobutanol): 0.727
OD600 unfed control ([1]; 2.5 % w/v isobutanol): 0.341
OD600 unfed control ([1]; 2.7 % w/v isobutanol): 0.131
OD600 unfed control ([1]; 2.9 % w/v isobutanol): 0.051
effect of isobutanol on growth rate of fabZ1 mutant strain BP63 (BP63 (ΔfabZ1) [2]; shake flask, suboptimal concentrations of oleic acid, FIG. 1): stimulated growth
Growth (OD600) of BP63 (ΔfabZ1) (BP63 (ΔfabZ1) [3]; oleic acid 0 mg/liter, iso-butanol 1%): 0.0383
Growth (OD600) of BP63 (ΔfabZ1) (BP63 (ΔfabZ1) [3]; oleic acid 0 mg/liter, iso-butanol 1.5%): 0.0385
Growth (OD600) of BP63 (ΔfabZ1) (BP63 (ΔfabZ1) [3]; oleic acid 0 mg/liter, iso-butanol 2%): 0.0402
Growth (OD600) of BP63 (ΔfabZ1) (BP63 (ΔfabZ1) [3]; oleic acid 0 mg/liter, iso-butanol 2.5%): 0.038
Growth (OD600) of BP63 (ΔfabZ1) (BP63 (ΔfabZ1) [3]; oleic acid 0 mg/liter, iso-butanol 3%): 0.0351
Growth (OD600) of BP63 (ΔfabZ1) (BP63 (ΔfabZ1) [3]; oleic acid 10 mg/liter, iso-butanol 1%): 0.0829
Growth (OD600) of BP63 (ΔfabZ1) (BP63 (ΔfabZ1) [3]; oleic acid 10 mg/liter, iso-butanol 1.5%): 0.0601
Growth (OD600) of BP63 (ΔfabZ1) (BP63 (ΔfabZ1) [3]; oleic acid 10 mg/liter, iso-butanol 2%): 0.0701
Growth (OD600) of BP63 (ΔfabZ1) (BP63 (ΔfabZ1) [3]; oleic acid 10 mg/liter, iso-butanol 2.5%): 0.0684
Growth (OD600) of BP63 (ΔfabZ1) (BP63 (ΔfabZ1) [3]; oleic acid 10 mg/liter, iso-butanol 3%): 0.0397
Growth (OD600) of BP63 (ΔfabZ1) (BP63 (ΔfabZ1) [3]; oleic acid 20 mg/liter, iso-butanol 1%): 0.2291
Growth (OD600) of BP63 (ΔfabZ1) (BP63 (ΔfabZ1) [3]; oleic acid 20 mg/liter, iso-butanol 1.5%): 0.2375
Growth (OD600) of BP63 (ΔfabZ1) (BP63 (ΔfabZ1) [3]; oleic acid 20 mg/liter, iso-butanol 2%): 0.068
Growth (OD600) of BP63 (ΔfabZ1) (BP63 (ΔfabZ1) [3]; oleic acid 20 mg/liter, iso-butanol 2.5%): 0.0594
Growth (OD600) of BP63 (ΔfabZ1) (BP63 (ΔfabZ1) [3]; oleic acid 20 mg/liter, iso-butanol 3%): 0.0399
Growth (OD600) of BP63 (ΔfabZ1) (BP63 (ΔfabZ1) [3]; oleic acid 30 mg/liter, iso-butanol 1%, listed as iso-butanol): 0.7686
Growth (OD600) of BP63 (ΔfabZ1) (BP63 (ΔfabZ1) [3]; oleic acid 30 mg/liter, iso-butanol 1%, listed as isobutanol): 0.769
Growth (OD600) of BP63 (ΔfabZ1) (BP63 (ΔfabZ1) [3]; oleic acid 30 mg/liter, iso-butanol 1.5%, listed as iso-butanol): 0.7137
Growth (OD600) of BP63 (ΔfabZ1) (BP63 (ΔfabZ1) [3]; oleic acid 30 mg/liter, iso-butanol 1.5%, listed as isobutanol): 0.714
Growth (OD600) of BP63 (ΔfabZ1) (BP63 (ΔfabZ1) [3]; oleic acid 30 mg/liter, iso-butanol 2%): 0.402
Growth (OD600) of BP63 (ΔfabZ1) (BP63 (ΔfabZ1) [3]; oleic acid 30 mg/liter, iso-butanol 2.5%): 0.1606
Growth (OD600) of BP63 (ΔfabZ1) (BP63 (ΔfabZ1) [3]; oleic acid 30 mg/liter, iso-butanol 3%): 0.0995
Growth (OD600) of BP63 (ΔfabZ1) (BP63 (ΔfabZ1) [3]; oleic acid 40 mg/liter, iso-butanol 1%): 1.2315
Growth (OD600) of BP63 (ΔfabZ1) (BP63 (ΔfabZ1) [3]; oleic acid 40 mg/liter, iso-butanol 1.5%): 0.8852
Growth (OD600) of BP63 (ΔfabZ1) (BP63 (ΔfabZ1) [3]; oleic acid 40 mg/liter, iso-butanol 2%): 0.8012
Growth (OD600) of BP63 (ΔfabZ1) (BP63 (ΔfabZ1) [3]; oleic acid 40 mg/liter, iso-butanol 2.5%): 0.1793
Growth (OD600) of BP63 (ΔfabZ1) (BP63 (ΔfabZ1) [3]; oleic acid 40 mg/liter, iso-butanol 3%): 0.1358
Growth (OD600) of BP63 (ΔfabZ1) (BP63 (ΔfabZ1) [3]; oleic acid 50 mg/liter, iso-butanol 1%): 1.2567
Growth (OD600) of BP63 (ΔfabZ1) (BP63 (ΔfabZ1) [3]; oleic acid 50 mg/liter, iso-butanol 1.5%): 1.257
Growth (OD600) of BP63 (ΔfabZ1) (BP63 (ΔfabZ1) [3]; oleic acid 50 mg/liter, iso-butanol 2%): 0.5464
Growth (OD600) of BP63 (ΔfabZ1) (BP63 (ΔfabZ1) [3]; oleic acid 50 mg/liter, iso-butanol 2.5%): 0.1654
Growth (OD600) of BP63 (ΔfabZ1) (BP63 (ΔfabZ1) [3]; oleic acid 50 mg/liter, iso-butanol 3%): 0.1185
effect of isobutanol on growth of the fabZ1 mutant (BP63 (ΔfabZ1) [3]; oleic acid supplied at sub-optimal levels): enhanced the growth

CCCCCCCC/C=C\CCCCCCCC(=O)O [Oleic acid, oleic acid]
growth of BP63 compared with fabZ1^+ control strain BP15 (BP63 (ΔfabZ1) [4]; 100 or 200 mg/liter of oleic acid): equivalent
growth of BP63 (BP63 (ΔfabZ1) [4]; low concentrations of oleic acid up to 12 mg/liter): essentially no growth
OD600 BP63 (ΔfabZ1) (BP63 (ΔfabZ1) [4]; oleic acid 1.5 mg/liter): 0.0091
OD600 BP63 (ΔfabZ1) (BP63 (ΔfabZ1) [4]; oleic acid 3 mg/liter): 0.0081
OD600 BP63 (ΔfabZ1) (BP63 (ΔfabZ1) [4]; oleic acid 6 mg/liter): 0.0084
OD600 BP63 (ΔfabZ1) (BP63 (ΔfabZ1) [4]; oleic acid 12 mg/liter): 0.0234
OD600 BP63 (ΔfabZ1) (BP63 (ΔfabZ1) [4]; oleic acid 25 mg/liter): 0.6943
OD600 BP63 (ΔfabZ1) (BP63 (ΔfabZ1) [4]; oleic acid 100 mg/liter): 1.1452
OD600 BP63 (ΔfabZ1) (BP63 (ΔfabZ1) [4]; oleic acid 200 mg/liter): 1.3725
growth rate of BP63 compared with parental strain BP15 (BP63 (ΔfabZ1) [2]; 55 mg/liter oleic acid, all concentrations of isobutanol): essentially identical
Growth (OD600) of BP63 (ΔfabZ1) (BP63 (ΔfabZ1) [3]; oleic acid 10 mg/liter, iso-butanol 0%): 0.0835
Growth (OD600) of BP63 (ΔfabZ1) (BP63 (ΔfabZ1) [3]; oleic acid 20 mg/liter, iso-butanol 0%): 0.1046
Growth (OD600) of BP63 (ΔfabZ1) (BP63 (ΔfabZ1) [3]; oleic acid 30 mg/liter, iso-butanol 0%): 0.153 and 0.1526
Growth (OD600) of BP63 (ΔfabZ1) (BP63 (ΔfabZ1) [3]; oleic acid 40 mg/liter, iso-butanol 0%): 0.2976
Growth (OD600) of BP63 (ΔfabZ1) (BP63 (ΔfabZ1) [3]; oleic acid 50 mg/liter, iso-butanol 0%): 1.181
Supports growth of BP63 [5]: YES
OD600 BP15 (fabZ1^+) (BP15 (fabZ1^+); oleic acid 1.5 mg/liter): 0.9449
OD600 BP15 (fabZ1^+) (BP15 (fabZ1^+); oleic acid 3 mg/liter): 0.8375
OD600 BP15 (fabZ1^+) (BP15 (fabZ1^+); oleic acid 6 mg/liter): 0.9459
OD600 BP15 (fabZ1^+) (BP15 (fabZ1^+); oleic acid 12 mg/liter): 0.9681
OD600 BP15 (fabZ1^+) (BP15 (fabZ1^+); oleic acid 25 mg/liter): 1.0069
OD600 BP15 (fabZ1^+) (BP15 (fabZ1^+); oleic acid 100 mg/liter): 1.0915
OD600 BP15 (fabZ1^+) (BP15 (fabZ1^+); oleic acid 200 mg/liter): 1.3187
